ChEMBL document CHEMBL2062394, “Azide-alkyne cycloaddition en route to novel 1H-1,2,3-triazole tethered isatin conjugates with in vitro cytotoxic evaluation” (Eur J Med Chem, 2012)

Each compound was assayed on Caco-2 (assay: Growth inhibition of human Caco2 cells at 10 uM after 48 hrs by SRB assay). Settings: Caco-2, 48 h, read-out: GI.
Format: functional

| Compound | inhibition of growth at 10 µM [%] |
| --- | --- |
| O=C1C(=O)N(CCn2cc(CN3C(=O)C(=O)c4cc(Br)ccc43)nn2)c2ccc(F)cc21 | 0 |
| Cc1ccc2c(c1)C(=O)C(=O)N2Cc1cn(CCN2C(=O)C(=O)c3cc(F)ccc32)nn1 | 0 |
| O=C1C(=O)N(CCn2cc(CN3C(=O)C(=O)c4cc(Cl)ccc43)nn2)c2ccc(F)cc21 | 2 |

The compounds below were run on A549 (assay: Growth inhibition of human A549 cells after 48 hrs by SRB assay). Settings: not given.
Format: functional, cell-based

| Compound | growth inhibition (GI) |
| --- | --- |
| O=C1C(=O)N(CCn2cc(CN3C(=O)C(=O)c4cc(Br)ccc43)nn2)c2ccc(F)cc21 | Dose-dependent effect |
| Cc1ccc2c(c1)C(=O)C(=O)N2Cc1cn(CCN2C(=O)C(=O)c3cc(F)ccc32)nn1 | Dose-dependent effect |
| O=C1C(=O)N(CCn2cc(CN3C(=O)C(=O)c4cc(Cl)ccc43)nn2)c2ccc(F)cc21 | Dose-dependent effect |

Same assay, conditions: A549, 48 h

| IC50 [µM] | Compound |
| --- | --- |
| 16.4 | O=C1C(=O)N(CCn2cc(CN3C(=O)C(=O)c4cc(Br)ccc43)nn2)c2ccc(F)cc21 |
| 49.9 | Cc1ccc2c(c1)C(=O)C(=O)N2Cc1cn(CCN2C(=O)C(=O)c3cc(F)ccc32)nn1 |
| 2.65 | O=C1C(=O)N(CCn2cc(CN3C(=O)C(=O)c4cc(Cl)ccc43)nn2)c2ccc(F)cc21 |

What follows are compounds tested on PC-3 (assay: Growth inhibition of human PC3 cells at 100 uM after 48 hrs by SRB assay). Settings: PC-3, 48 h, read-out: GI.
Format: functional

| Compound | inhibition of growth at 100 µM [%] |
| --- | --- |
| O=C1C(=O)N(CCn2cc(CN3C(=O)C(=O)c4cc(Br)ccc43)nn2)c2ccc(F)cc21 | 51 |
| Cc1ccc2c(c1)C(=O)C(=O)N2Cc1cn(CCN2C(=O)C(=O)c3cc(F)ccc32)nn1 | 48 |
| O=C1C(=O)N(CCn2cc(CN3C(=O)C(=O)c4cc(Cl)ccc43)nn2)c2ccc(F)cc21 | 9 |

Each compound was assayed on Caco-2 (assay: Growth inhibition of human Caco2 cells at 50 uM after 48 hrs by SRB assay). Settings: Caco-2, 48 h, read-out: GI.
Format: functional

| Compound | inhibition of growth at 50 µM [%] |
| --- | --- |
| O=C1C(=O)N(CCn2cc(CN3C(=O)C(=O)c4cc(Br)ccc43)nn2)c2ccc(F)cc21 | 7 |
| Cc1ccc2c(c1)C(=O)C(=O)N2Cc1cn(CCN2C(=O)C(=O)c3cc(F)ccc32)nn1 | 15 |
| O=C1C(=O)N(CCn2cc(CN3C(=O)C(=O)c4cc(Cl)ccc43)nn2)c2ccc(F)cc21 | 12 |

What follows are compounds tested on THP-1 (assay: Growth inhibition of human THP1 cells at 10 uM after 48 hrs by SRB assay). Settings: THP-1, 48 h, read-out: GI.
Format: functional

| Compound | inhibition of growth at 10 µM [%] |
| --- | --- |
| O=C1C(=O)N(CCn2cc(CN3C(=O)C(=O)c4cc(Br)ccc43)nn2)c2ccc(F)cc21 | 26 |
| Cc1ccc2c(c1)C(=O)C(=O)N2Cc1cn(CCN2C(=O)C(=O)c3cc(F)ccc32)nn1 | 14 |
| O=C1C(=O)N(CCn2cc(CN3C(=O)C(=O)c4cc(Cl)ccc43)nn2)c2ccc(F)cc21 | 20 |

Each compound was assayed on PC-3 (assay: Growth inhibition of human PC3 cells at 50 uM after 48 hrs by SRB assay). Settings: PC-3, 48 h, read-out: GI.
Format: functional

| Compound | inhibition of growth at 50 µM [%] |
| --- | --- |
| O=C1C(=O)N(CCn2cc(CN3C(=O)C(=O)c4cc(Br)ccc43)nn2)c2ccc(F)cc21 | 2 |
| Cc1ccc2c(c1)C(=O)C(=O)N2Cc1cn(CCN2C(=O)C(=O)c3cc(F)ccc32)nn1 | 31 |
| O=C1C(=O)N(CCn2cc(CN3C(=O)C(=O)c4cc(Cl)ccc43)nn2)c2ccc(F)cc21 | 4 |

Each compound was assayed on A549 (assay: Growth inhibition of human A549 cells at 100 uM after 48 hrs by SRB assay). Settings: A549, 48 h, read-out: GI.
Format: functional

| Compound | inhibition of growth at 100 µM [%] |
| --- | --- |
| O=C1C(=O)N(CCn2cc(CN3C(=O)C(=O)c4cc(Br)ccc43)nn2)c2ccc(F)cc21 | 98 |
| Cc1ccc2c(c1)C(=O)C(=O)N2Cc1cn(CCN2C(=O)C(=O)c3cc(F)ccc32)nn1 | 99 |
| O=C1C(=O)N(CCn2cc(CN3C(=O)C(=O)c4cc(Cl)ccc43)nn2)c2ccc(F)cc21 | 97 |

These compounds were tested on Caco-2 (assay: Growth inhibition of human Caco2 cells at 100 uM after 48 hrs by SRB assay). Settings: Caco-2, 48 h, read-out: GI.
Format: functional

| Compound | inhibition of growth at 100 µM [%] |
| --- | --- |
| O=C1C(=O)N(CCn2cc(CN3C(=O)C(=O)c4cc(Br)ccc43)nn2)c2ccc(F)cc21 | 13 |
| Cc1ccc2c(c1)C(=O)C(=O)N2Cc1cn(CCN2C(=O)C(=O)c3cc(F)ccc32)nn1 | 44 |
| O=C1C(=O)N(CCn2cc(CN3C(=O)C(=O)c4cc(Cl)ccc43)nn2)c2ccc(F)cc21 | 30 |

The compounds below were run on PC-3 (assay: Growth inhibition of human PC3 cells at 10 uM after 48 hrs by SRB assay). Settings: PC-3, 48 h, read-out: GI.
Format: functional

| Compound | inhibition of growth at 10 µM [%] |
| --- | --- |
| O=C1C(=O)N(CCn2cc(CN3C(=O)C(=O)c4cc(Br)ccc43)nn2)c2ccc(F)cc21 | 0 |
| Cc1ccc2c(c1)C(=O)C(=O)N2Cc1cn(CCN2C(=O)C(=O)c3cc(F)ccc32)nn1 | 0 |
| O=C1C(=O)N(CCn2cc(CN3C(=O)C(=O)c4cc(Cl)ccc43)nn2)c2ccc(F)cc21 | 0 |

These compounds were tested on A549 (assay: Growth inhibition of human A549 cells at 50 uM after 48 hrs by SRB assay). Settings: A549, 48 h, read-out: GI.
Format: functional

| Compound | inhibition of growth at 50 µM [%] |
| --- | --- |
| O=C1C(=O)N(CCn2cc(CN3C(=O)C(=O)c4cc(Br)ccc43)nn2)c2ccc(F)cc21 | 79 |
| Cc1ccc2c(c1)C(=O)C(=O)N2Cc1cn(CCN2C(=O)C(=O)c3cc(F)ccc32)nn1 | 57 |
| O=C1C(=O)N(CCn2cc(CN3C(=O)C(=O)c4cc(Cl)ccc43)nn2)c2ccc(F)cc21 | 73 |

Each compound was assayed on A549 (assay: Growth inhibition of human A549 cells at 10 uM after 48 hrs by SRB assay). Settings: A549, 48 h, read-out: GI.
Format: functional

| Compound | inhibition of growth at 10 µM [%] |
| --- | --- |
| O=C1C(=O)N(CCn2cc(CN3C(=O)C(=O)c4cc(Br)ccc43)nn2)c2ccc(F)cc21 | 41 |
| Cc1ccc2c(c1)C(=O)C(=O)N2Cc1cn(CCN2C(=O)C(=O)c3cc(F)ccc32)nn1 | 8 |
| O=C1C(=O)N(CCn2cc(CN3C(=O)C(=O)c4cc(Cl)ccc43)nn2)c2ccc(F)cc21 | 64 |

Each compound was assayed on PC-3 (assay: Growth inhibition of human PC3 cells after 48 hrs by SRB assay). Settings: not given.
Format: functional, cell-based

| Compound | growth inhibition (GI) |
| --- | --- |
| O=C1C(=O)N(CCn2cc(CN3C(=O)C(=O)c4cc(Br)ccc43)nn2)c2ccc(F)cc21 | Dose-dependent effect |
| Cc1ccc2c(c1)C(=O)C(=O)N2Cc1cn(CCN2C(=O)C(=O)c3cc(F)ccc32)nn1 | Dose-dependent effect |
| O=C1C(=O)N(CCn2cc(CN3C(=O)C(=O)c4cc(Cl)ccc43)nn2)c2ccc(F)cc21 | Dose-dependent effect |

Same assay, conditions: PC-3, 48 h

| IC50 [µM] | Compound |
| --- | --- |
| > 100 | O=C1C(=O)N(CCn2cc(CN3C(=O)C(=O)c4cc(Br)ccc43)nn2)c2ccc(F)cc21 |
| 85.2 | Cc1ccc2c(c1)C(=O)C(=O)N2Cc1cn(CCN2C(=O)C(=O)c3cc(F)ccc32)nn1 |
| > 100 | O=C1C(=O)N(CCn2cc(CN3C(=O)C(=O)c4cc(Cl)ccc43)nn2)c2ccc(F)cc21 |

Each compound was assayed on THP-1 (assay: Growth inhibition of human THP1 cells at 50 uM after 48 hrs by SRB assay). Settings: THP-1, 48 h, read-out: GI.
Format: functional

| Compound | inhibition of growth at 50 µM [%] |
| --- | --- |
| O=C1C(=O)N(CCn2cc(CN3C(=O)C(=O)c4cc(Br)ccc43)nn2)c2ccc(F)cc21 | 85 |
| Cc1ccc2c(c1)C(=O)C(=O)N2Cc1cn(CCN2C(=O)C(=O)c3cc(F)ccc32)nn1 | 88 |
| O=C1C(=O)N(CCn2cc(CN3C(=O)C(=O)c4cc(Cl)ccc43)nn2)c2ccc(F)cc21 | 70 |

What follows are compounds tested on THP-1 (assay: Growth inhibition of human THP1 cells after 48 hrs by SRB assay). Settings: not given.
Format: functional, cell-based

| Compound | growth inhibition (GI) |
| --- | --- |
| O=C1C(=O)N(CCn2cc(CN3C(=O)C(=O)c4cc(Br)ccc43)nn2)c2ccc(F)cc21 | Dose-dependent effect |
| Cc1ccc2c(c1)C(=O)C(=O)N2Cc1cn(CCN2C(=O)C(=O)c3cc(F)ccc32)nn1 | Dose-dependent effect |
| O=C1C(=O)N(CCn2cc(CN3C(=O)C(=O)c4cc(Cl)ccc43)nn2)c2ccc(F)cc21 | Dose-dependent effect |

Same assay, conditions: THP-1, 48 h

| IC50 [µM] | Compound |
| --- | --- |
| 27.6 | O=C1C(=O)N(CCn2cc(CN3C(=O)C(=O)c4cc(Br)ccc43)nn2)c2ccc(F)cc21 |
| 38.8 | Cc1ccc2c(c1)C(=O)C(=O)N2Cc1cn(CCN2C(=O)C(=O)c3cc(F)ccc32)nn1 |
| 36.3 | O=C1C(=O)N(CCn2cc(CN3C(=O)C(=O)c4cc(Cl)ccc43)nn2)c2ccc(F)cc21 |

What follows are compounds tested on THP-1 (assay: Growth inhibition of human THP1 cells at 100 uM after 48 hrs by SRB assay). Settings: THP-1, 48 h, read-out: GI.
Format: functional

| Compound | inhibition of growth at 100 µM [%] |
| --- | --- |
| O=C1C(=O)N(CCn2cc(CN3C(=O)C(=O)c4cc(Br)ccc43)nn2)c2ccc(F)cc21 | 94 |
| Cc1ccc2c(c1)C(=O)C(=O)N2Cc1cn(CCN2C(=O)C(=O)c3cc(F)ccc32)nn1 | 89 |
| O=C1C(=O)N(CCn2cc(CN3C(=O)C(=O)c4cc(Cl)ccc43)nn2)c2ccc(F)cc21 | 92 |

What follows are compounds tested on Caco-2 (assay: Growth inhibition of human Caco2 cells after 48 hrs by SRB assay). Settings: not given.
Format: functional, cell-based

| Compound | growth inhibition (GI) |
| --- | --- |
| O=C1C(=O)N(CCn2cc(CN3C(=O)C(=O)c4cc(Br)ccc43)nn2)c2ccc(F)cc21 | Dose-dependent effect |
| Cc1ccc2c(c1)C(=O)C(=O)N2Cc1cn(CCN2C(=O)C(=O)c3cc(F)ccc32)nn1 | Dose-dependent effect |
| O=C1C(=O)N(CCn2cc(CN3C(=O)C(=O)c4cc(Cl)ccc43)nn2)c2ccc(F)cc21 | Dose-dependent effect |

Same assay, conditions: Caco-2, 48 h

| IC50 [µM] | Compound |
| --- | --- |
| > 100 | O=C1C(=O)N(CCn2cc(CN3C(=O)C(=O)c4cc(Br)ccc43)nn2)c2ccc(F)cc21 |
| > 100 | Cc1ccc2c(c1)C(=O)C(=O)N2Cc1cn(CCN2C(=O)C(=O)c3cc(F)ccc32)nn1 |
| > 100 | O=C1C(=O)N(CCn2cc(CN3C(=O)C(=O)c4cc(Cl)ccc43)nn2)c2ccc(F)cc21 |
